Test results reported in US9062040B2 (priority 2009, dated 2015).
Like-named read-outs stand apart in the source and are kept apart here.

Columns and labels:
Phytophthora infestans [1] = type: in vivo
[2] = system: Pseudoperonospora cubensis; assay: Test J: cucumber downy mildew, spray before inoculation, cucumber seedlings, mixtures with Colby expected values; type: in vivo; settings: Table C
Text: General protocol for preparing test compositions for Tests I-K: Amisulbrom was formulated and ametoctradin was obtained as unformulated, technical-grade materials. Compound 1 were formulated as an oil dispersion containing a mixture of POE (polyoxyethylene) 40 sorbitol hexaoleate, POE 20 sorbitan trioleate, and alkyl-peg resin surfactants in a liquid carrier consisting of a distilled C18 fatty acid methyl ester. Ametoctradin was first dissolved in acetone and then suspended at the desired concentration (in ppm) in acetone and purified water (50/50 mix by volume) containing 250 ppm of the surfactant Trem® 014 (polyhydric alcohol esters). Amisulbrom was dispersed in sufficient water to give the desired concentration, and neither organic solvent nor surfactant was added to the suspension. The resulting test mixtures were then used in Tests I-K. Spraying a 200 ppm test mixture to the point of run-off on the test plants was the equivalent of a rate of 800 g/ha. The tests were replicated three times and the results reported as the mean average of the three replicates.
The presence of a synergistic effect between two active ingredients was established with the aid of the Colby equation (see Colby, S. R. “Calculating Synergistic and Antagonistic Responses of Herbicide Combinations”, Weeds, (1967), 15, 20-22):
Using the method of Colby, the presence of a synergistic interaction between two active ingredients is established by first calculating the predicted activity, p, of the mixture based on activities of the two components applied alone. If p is lower than the experimentally established effect, synergism has occurred. In the equation above, A is the fungicidal activity in percentage control of one component applied alone at rate x. The B term is the fungicidal activity in percentage control of the second component applied at rate y. The equation estimates p, the expected fungicidal activity of the mixture of A at rate x with B at rate y if their effects are strictly additive and no interaction has occurred.
The test mixture was sprayed to the point of run-off on cucumber seedlings. The following day the seedlings were inoculated with a spore suspension of Pseudoperonospora cubensis (the causal agent of cucumber downy mildew) and incubated in saturated atmosphere at 20° C. for 24 h, and moved to a growth chamber at 20° C. for 6 days, after which time disease ratings were made.
Results for Tests I to K are given in Tables C-E. Each table corresponds to a set of evaluations performed together at the same time. In each table, a rating of 100 indicates 100% disease control and a rating of 0 indicates no disease control (relative to the controls). Columns labeled “Obsd” indicate the average of results observed from three replications. Columns labeled “Exptd” indicate the expected value for each treatment mixture using the Colby equation.

Phytophthora infestans [3] = type: in vivo; settings: Table E
[4] = Stability experiments for solid forms of Compound 1 (temperature and humidity, XRPD); type: physicochemical
Text: The physical stability of polymorph Form A was characterized. […] Samples of Form A exposed to 53, 75, and 85% relative humidity at ambient temperature (10 days) were also unchanged, as determined by XRPD.
The physical stability of polymorph Form B was characterized.
The physical stability of the amorphous material was characterized.

[5] = Relative stability experiments for polymorph Form A and Form B (DSC heat of fusion rule, competitive interconversion); type: physicochemical
Method: Differential scanning calorimetry was performed on a Thermal Analysis Q2000 Differential Scanning Calorimeter. A sample (2.3 mg) was placed in an aluminum DSC pan. The sample cell was heated under a nitrogen purge at 10° C./minute. Indium metal was used as the calibration standard.
The relative stability of polymorphic Forms A and B of Compound 1 was characterized with Differential Scanning Calorimetry and a competitive interconversion experiment. Phase transitions of solids can be thermodynamically reversible or irreversible. Crystalline polymorphs which transform reversibly at a specific transition temperature (Ttr) are called enantiotropic polymorphs. If the crystalline polymorphs are not interconvertable, the system is monotropic (i.e. one polymorph is thermodynamically stable relative to the other over the entire temperature range up to melting). The relationship between forms can be determined by the application of the heat of fusion rule (Burger, A.; Ramberger, R. Mikrochim. Acta [Wein], 1979 II, 259-271). The rule states that if the higher melting form has the lower heat of fusion, then the two forms are enantiotropic. Otherwise, they are monotropic.
To support this conclusion, a competitive interconversion experiment between polymorph Forms A and B was performed in ethanol at room temperature. […]

[6] = Table C, component (b) alone 0.08 ppm
[7] = Table C, component (b) alone 0.4 ppm
[8] = Table C, component (b) alone 2 ppm
[9] = Table C, component (b) alone 10 ppm
[10] = Table C, component (b) alone 40 ppm
[11] = Table D, component (b) alone 0.08 ppm
[12] = Table D, component (b) alone 0.4 ppm
[13] = Table D, component (b) alone 2 ppm
[14] = Table D, component (b) alone 10 ppm

SMILES	stability of the pure solid form (summary of Characterization Example 4) [4]	Test I Obsd (Phytophthora infestans [1]; [6]) [%]	Test I Obsd (Phytophthora infestans [1]; [7]) [%]	Test I Obsd (Phytophthora infestans [1]; [8]) [%]	Test I Obsd (Phytophthora infestans [1]; [9]) [%]	Test I Obsd (Phytophthora infestans [1]; [10]) [%]	Test I Obsd (Phytophthora infestans [1]; [11]) [%]	Test I Obsd (Phytophthora infestans [1]; [12]) [%]	Test I Obsd (Phytophthora infestans [1]; [13]) [%]	Test I Obsd (Phytophthora infestans [1]; [14]) [%]	Test J Obsd ([2]; component (b) alone 0.08 ppm) [%]	Test J Obsd ([2]; component (b) alone 0.4 ppm) [%]	Test J Obsd ([2]; component (b) alone 2 ppm) [%]	Test J Obsd ([2]; component (b) alone 10 ppm) [%]	Test J Obsd ([2]; component (b) alone 40 ppm) [%]	Test K Obsd (Phytophthora infestans [3]; component (b) alone 0.4 ppm) [%]	Test K Obsd (Phytophthora infestans [3]; component (b) alone 2 ppm) [%]	Test K Obsd (Phytophthora infestans [3]; component (b) alone 10 ppm) [%]	Test K Obsd (Phytophthora infestans [3]; component (b) alone 40 ppm) [%]	Test K Obsd (Phytophthora infestans [3]; component (b) alone 200 ppm) [%]	further results
Cc1cc(C(F)(F)F)nn1CC(=O)N1CCC(c2nc(C3=NOC(c4c(F)cccc4F)C3)cs2)CC1 (racemic) [Compound 1, 1-[4-[4-[5-(2,6-difluorophenyl)-4,5-dihydro-3-isoxazolyl]-2-thiazolyl]-1-piperidinyl]-2-[5-methyl-3-(trifluoromethyl)-1H-pyrazol-1-yl]ethanone]	–	–	–	–	–	–	–	–	–	–	–	–	–	–	–	–	–	–	–	–	Test I Obsd (Phytophthora infestans [1]; Table C, Compound 1 alone 0.00001 ppm): 39%; Test I Obsd (Phytophthora infestans [1]; Table C, Compound 1 alone 0.0001 ppm): 63%; Test I Obsd (Phytophthora infestans [1]; Table C, Compound 1 alone 0.001 ppm): 72%; Test I Obsd (Phytophthora infestans [1]; Table C, Compound 1 alone 0.01 ppm): 100%; Test I Obsd (Phytophthora infestans [1]; Table C, Compound 1 alone 0.1 ppm): 100%; Test I Obsd (Phytophthora infestans [1]; Table D, Compound 1 alone 0.00001 ppm): 0%; Test I Obsd (Phytophthora infestans [1]; Table D, Compound 1 alone 0.0001 ppm): 0%; Test I Obsd (Phytophthora infestans [1]; Table D, Compound 1 alone 0.001 ppm): 80%; Test I Obsd (Phytophthora infestans [1]; Table D, Compound 1 alone 0.01 ppm): 93%; Test I Obsd (Phytophthora infestans [1]; Table D, Compound 1 alone 0.1 ppm): 100%; Test J Obsd ([2]; Compound 1 alone 0.00001 ppm): 17%; Test J Obsd ([2]; Compound 1 alone 0.0001 ppm): 47%; Test J Obsd ([2]; Compound 1 alone 0.001 ppm): 40%; Test J Obsd ([2]; Compound 1 alone 0.01 ppm): 94%; Test J Obsd ([2]; Compound 1 alone 0.1 ppm): 100%; Test K Obsd (Phytophthora infestans [3]; Compound 1 alone 0.001 ppm): 0%; Test K Obsd (Phytophthora infestans [3]; Compound 1 alone 0.01 ppm): 17%; Test K Obsd (Phytophthora infestans [3]; Compound 1 alone 0.1 ppm): 80%; Test K Obsd (Phytophthora infestans [3]; Compound 1 alone 1 ppm): 99%; Test K Obsd (Phytophthora infestans [3]; Compound 1 alone 10 ppm): 100%
Cc1cc(C(F)(F)F)nn1CC(=O)N1CCC(c2nc(C3=NOC(c4c(F)cccc4F)C3)cs2)CC1 (racemic) [polymorph Form A, 1-[4-[4-[5-(2,6-difluorophenyl)-4,5-dihydro-3-isoxazolyl]-2-thiazolyl]-1-piperidinyl]-2-[5-methyl-3-(trifluoromethyl)-1H-pyrazol-1-yl]ethanone]	physically stable and non-hydrated	–	–	–	–	–	–	–	–	–	–	–	–	–	–	–	–	–	–	–	physical stability by XRPD ([4]; exposed to 53, 75, and 85% relative humidity at ambient temperature (10 days)): unchanged; physical stability by XRPD ([4]; maintained at 40, 60, and 80° C. for 4 days): remained unchanged
Cc1cc(C(F)(F)F)nn1CC(=O)N1CCC(c2nc(C3=NOC(c4c(F)cccc4F)C3)cs2)CC1 (racemic) [polymorph Form B, 1-[4-[4-[5-(2,6-difluorophenyl)-4,5-dihydro-3-isoxazolyl]-2-thiazolyl]-1-piperidinyl]-2-[5-methyl-3-(trifluoromethyl)-1H-pyrazol-1-yl]ethanone]	–	–	–	–	–	–	–	–	–	–	–	–	–	–	–	–	–	–	–	–	physical stability by XRPD ([4]; exposed to 85% relative humidity at ambient temperature (10 days)): unchanged; physical stability by XRPD ([4]; maintained at 40° C. and 25° C. for 4 days): remained unchanged; relative stability by heat of fusion rule from DSC data ([5]; DSC data of Characterization Example 3, forms monotropically related): most stable form throughout the temperature range up to the melt; relative stability, competitive interconversion experiment ([5]; equal amounts of Forms A and B in saturated ethanol, room temperature, stirred 4 days, solids identified by XRPD): more stable than polymorph Form A
CCCCCCCCc1c(CC)nc2ncnn2c1N [Ametoctradin, ametoctradin]	–	8	23	63	83	83	9	0	0	94	0	0	0	26	95	0	0	0	0	0	Test I Obsd (Phytophthora infestans [1]; Table D, component (b) alone 40 ppm): 93%
Cc1c(Br)c2ccc(F)cc2n1S(=O)(=O)c1ncn(S(=O)(=O)N(C)C)n1 [Amisulbrom, amisulbrom]	–	57	52	82	100	100	9	63	85	86	0	0	95	100	100	0	0	0	0	0	Test I Obsd (Phytophthora infestans [1]; Table D, component (b) alone 0.016 ppm): 0%
Cc1cc(C(F)(F)F)nn1CC(=O)N1CCC(c2nc(C3=NOC(c4c(F)cccc4F)C3)cs2)CC1 (stereo not drawn) [Amorphous Compound 1, 1-[4-[4-[5-(2,6-difluorophenyl)-4,5-dihydro-3-isoxazolyl]-2-thiazolyl]-1-piperidinyl]-2-[5-methyl-3-(trifluoromethyl)-1H-pyrazol-1-yl]ethanone]	stable and non-hydrated	–	–	–	–	–	–	–	–	–	–	–	–	–	–	–	–	–	–	–	physical stability by XRPD ([4]; elevated temperatures (60, 80 and 100° C.) and humidities (75 and 85% relative humidity) for 10-12 days): remained unchanged
